Reference: patent publication US20140179664A1, “Heterocyclyl Pyrimidine Analogues As JAK Inhibitors” (Cellzome Limited, priority 2011, published 2014)

Tests used:
JAK1 = target: T1, JAK1 (Homo sapiens, UniProt P23458); assay: Kinobeads assay, JAK1; format: binding; settings: mixed Molt4/Ramos lysate, read-out: Inhibition values (IC50) JAK1
T1 construct: endogenous in cells; host or cells: Molt4 (ATCC CRL-1582) and Ramos (ATCC CRL-1596), mixed lysate 1:2
How it was run: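 Mixed Molt4/Ramos cell lysate (1:2) was incubated 3 hours in the cold with kinobeads and a 9-step 1:3 compound dilution series. The no-compound control carried 2% DMSO. Bead-bound JAK1 was eluted, detected by antibody dot blot with infrared fluorescence, and IC50 derived from dose-response curves.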

[1] = system: STAT5 phosphorylation downstream of JAK3 in human YT cells; assay: pSTAT5 cell assay (IL-2 stimulated YT cells, AlphaScreen); format: cell-based; settings: IL-2 stimulation, read-out: Inhibition values (IC50) pSTAT5
From the text: STAT5 phosphorylation represents one of the proximal events in the signalling cascade downstream of JAK3 activation. Therefore STAT5 phosphorylation is an appropriate readout to assess the mechanistic effect of JAK3 inhibition. Stimulation of human YT cells, an NK-like cell line, with interleukin-2 (IL-2) results in phosphorylation of STAT5 at tyrosine residue 694 (Tyr694) that can be quantitatively measured by immunodetection with specific antibodies and an appropriate detection method, in this case AlphaScreen assay technology.
Human YT cells were grown in RPMI medium (Lonza, BE12-167) with 2 mM L-Glutamine (Invitrogen, 25030-024) and 10% heat-inactivated FBS (Invitrogen, 10106-169) and kept in a humidified incubator (37° C., 5% CO2). Cells were harvested by centrifugation, washed once with HBSS (Invitrogen, 14180-046), resuspended in HBSS at 1.5×10^6 cells/ml and 0.9×10^4 cells were seeded in 6 μl per well in a 96 well White plate (PerkinElmer, 6005569).
Test compounds were dissolved in DMSO and a 1:3 dilution series (9 steps) was prepared. To generate a dose response curve, 3 μl of fourfold concentrated compound in 4% DMSO/HBSS were added to each cell sample in the 96 well plate resulting in a final DMSO concentration of 1% DMSO. Cells were incubated for one hour in a humidified incubator (37° C., 5% CO2). To each well 3 μl of a fourfold concentrated IL-2 solution (Recombinant human IL-2, Peprotech 200-02; 120 nM solution in HBSS) was added and incubated for 30 minutes at room temperature. Cells were lysed by adding 3 μl of 5× lysis buffer (SureFire lysis buffer; Perkin Elmer, TGRS5S10K) and incubated for 10 minutes at room temperature with gentle shaking
For signal detection by AlphaScreen® technology the SureFire phospho-STAT5 (Tyr694/Tyr699) kit was used according to instructions provided by the manufacturer (Perkin Elmer, TGRS5S10K). Acceptor beads were added as recommended by the manufacturer (Reactivation buffer/Activation buffer/Acceptor beads at a ratio of 40:10:1) and incubated at room temperature for 1.5 hours with gentle shaking Then donor beads were added as recommended (Dilution buffer/Donor beads at a ratio of 20:1) and incubated at room temperature for 1.5 hours with gentle shaking Plates were read on an Envision instrument (Perkin Elmer) with the AlphaScreen protocol. Data were analysed in BioAssay using the nonlinear regression for a sigmoidal dose-response with a variable slope.

T1 sequence (P23458 whole entry): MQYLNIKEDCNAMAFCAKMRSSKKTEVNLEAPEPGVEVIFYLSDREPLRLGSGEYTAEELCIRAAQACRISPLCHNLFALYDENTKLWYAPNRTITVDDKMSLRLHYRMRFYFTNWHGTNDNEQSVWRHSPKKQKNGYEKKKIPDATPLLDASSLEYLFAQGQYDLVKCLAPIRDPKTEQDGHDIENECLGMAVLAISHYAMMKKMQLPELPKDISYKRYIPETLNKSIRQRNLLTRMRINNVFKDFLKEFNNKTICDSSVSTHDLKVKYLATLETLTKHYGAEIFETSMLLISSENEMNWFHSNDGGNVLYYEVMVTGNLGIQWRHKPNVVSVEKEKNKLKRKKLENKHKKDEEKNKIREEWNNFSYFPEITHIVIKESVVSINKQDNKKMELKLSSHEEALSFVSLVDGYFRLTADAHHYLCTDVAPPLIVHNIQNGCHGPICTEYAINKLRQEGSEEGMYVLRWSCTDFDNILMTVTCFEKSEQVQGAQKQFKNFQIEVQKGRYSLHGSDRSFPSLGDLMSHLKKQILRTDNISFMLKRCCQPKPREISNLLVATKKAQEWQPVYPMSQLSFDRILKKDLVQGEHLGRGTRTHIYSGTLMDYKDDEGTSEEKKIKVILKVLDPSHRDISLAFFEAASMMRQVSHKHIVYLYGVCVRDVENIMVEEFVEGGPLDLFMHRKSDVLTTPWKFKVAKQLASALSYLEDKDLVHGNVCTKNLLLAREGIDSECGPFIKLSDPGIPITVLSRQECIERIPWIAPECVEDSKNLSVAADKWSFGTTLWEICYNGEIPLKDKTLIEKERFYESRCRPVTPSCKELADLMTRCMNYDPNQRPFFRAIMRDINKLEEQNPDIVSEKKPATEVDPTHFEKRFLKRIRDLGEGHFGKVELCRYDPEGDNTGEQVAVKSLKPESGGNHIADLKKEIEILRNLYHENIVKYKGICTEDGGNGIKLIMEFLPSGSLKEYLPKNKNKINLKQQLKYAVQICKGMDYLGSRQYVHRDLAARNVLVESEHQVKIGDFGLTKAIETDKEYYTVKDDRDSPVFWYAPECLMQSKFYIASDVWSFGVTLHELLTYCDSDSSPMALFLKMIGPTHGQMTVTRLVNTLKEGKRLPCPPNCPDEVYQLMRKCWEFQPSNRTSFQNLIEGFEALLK

SMILES	IC50 (JAK1) [nM]	IC50 [1] [nM]
CNC(=O)Cn1cc(Nc2ncc(Cl)c(N[C@H](CO)c3ccccc3)n2)cn1 [Compound 23, (S)-2-(4-((5-chloro-4-((2-hydroxy-1-phenylethyl)amino)pyrimidin-2-yl)amino)-1H-pyrazol-1-yl)-N-methylacetamide]	100 to 1000	250 to 1000
CC(C)NC(=O)Cn1cc(Nc2ncc(Cl)c(N[C@H](CO)c3ccccc3)n2)cn1 [Compound 67]	100 to 1000	250 to 1000
OC[C@@H](Nc1nc(Nc2cn[nH]c2)ncc1Cl)c1ccccc1 [Compound 75]	1000 to 10000	250 to 1000
NC(=O)Cn1cc(Nc2ncc(Cl)c(N[C@H](CO)c3ccccc3F)n2)cn1 [Compound 78]	< 100	< 250
CN(C)C(=O)Cn1cc(Nc2ncc(Cl)c(N[C@H](CO)c3ccccc3)n2)cn1 [Compound 30]	100 to 1000	250 to 1000
O=C(Cn1cc(Nc2ncc(Cl)c(N[C@H](CO)c3ccccc3)n2)cn1)NC1CC1 [Compound 68]	100 to 1000	250 to 1000
